molecular target: MCH receptor (Homo sapiens, UniProt Q99705); experiment: Receptor binding assay with Radiolabelled MCH Ligand; design: expressed in transfected cells; host or cells: 293 cells (human kidney, ATCC), transient transfection; crude membranes; conditions: class by percent of control at 10^-7 M or IC50
How it was run: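 Membranes from 293 cells transiently transfected with human MCH receptor competed test compounds against a radiolabelled MCH ligand in Tris-HCl pH 7.4 with MgCl2 and EDTA for 60–120 min at room temperature. Filtration and scintillation counting followed, with cold MCH defining nonspecific binding. IC50 came from logit-log plots of %B/B0, and Ki from the Cheng-Prusoff equation.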

MCH receptor, sequence (Q99705 whole entry): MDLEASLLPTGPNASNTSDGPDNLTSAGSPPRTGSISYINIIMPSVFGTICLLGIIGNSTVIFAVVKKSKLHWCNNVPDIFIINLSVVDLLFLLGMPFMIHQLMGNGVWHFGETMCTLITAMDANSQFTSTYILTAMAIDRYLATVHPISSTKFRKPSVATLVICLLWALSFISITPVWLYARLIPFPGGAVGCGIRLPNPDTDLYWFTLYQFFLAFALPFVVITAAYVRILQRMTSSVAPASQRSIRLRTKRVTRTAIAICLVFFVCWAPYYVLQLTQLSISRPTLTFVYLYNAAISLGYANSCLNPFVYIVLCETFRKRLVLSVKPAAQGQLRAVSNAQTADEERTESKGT

Row | Structure (SMILES) | class
1 | Cc1nc(N[C@H]2CC[C@@H](NC(=O)OCc3ccccc3)CC2)cc(N(C)C)n1 [compound 463] | 3 (Class 3: The value of percent of control at 10^−7 M was more than 60% or the value of IC50 was more than 200 nM.)
2 | Cc1nc(N[C@H]2CC[C@@H](NC(=O)Oc3ccccc3)CC2)cc(N(C)C)n1 [compound 464, phenyl (cis-4-{[6-(dimethylamino)-2-methylpyrimidin-4-yl]amino}cyclohexyl)carbamate] | 3 (Class 3: The value of percent of control at 10^−7 M was more than 60% or the value of IC50 was more than 200 nM.)
3 | Cc1nc(N[C@H]2CC[C@@H](NC(=O)OC3C[C@H](C)CC[C@H]3C(C)C)CC2)cc(N(C)C)n1 (stereo partly drawn) [compound 465] | 3 (Class 3: The value of percent of control at 10^−7 M was more than 60% or the value of IC50 was more than 200 nM.)
4 | Cc1ccc(OC(=O)N[C@H]2CC[C@@H](Nc3cc(N(C)C)nc(C)n3)CC2)cc1 [compound 466] | 3 (Class 3: The value of percent of control at 10^−7 M was more than 60% or the value of IC50 was more than 200 nM.)
5 | COC(=O)N[C@H]1CC[C@@H](Nc2cc(N(C)C)nc(C)n2)CC1 [compound 467] | 3 (Class 3: The value of percent of control at 10^−7 M was more than 60% or the value of IC50 was more than 200 nM.)
6 | Cc1nc(N[C@H]2CC[C@@H](NC(=O)OCc3ccccc3Cl)CC2)cc(N(C)C)n1 [compound 468] | 3 (Class 3: The value of percent of control at 10^−7 M was more than 60% or the value of IC50 was more than 200 nM.)
7 | Cc1nc(N[C@H]2CC[C@@H](NC(=O)OCC3c4ccccc4-c4ccccc43)CC2)cc(N(C)C)n1 [compound 469] | 3 (Class 3: The value of percent of control at 10^−7 M was more than 60% or the value of IC50 was more than 200 nM.)
8 | Cc1nc(N[C@H]2CC[C@@H](NC(=O)OCC(Cl)(Cl)Cl)CC2)cc(N(C)C)n1 [compound 470] | 3 (Class 3: The value of percent of control at 10^−7 M was more than 60% or the value of IC50 was more than 200 nM.)
9 | Cc1nc(N[C@H]2CC[C@@H](NS(=O)(=O)/C=C/c3ccccc3)CC2)cc(N(C)C)n1 [compound 471] | 3 (Class 3: The value of percent of control at 10^−7 M was more than 60% or the value of IC50 was more than 200 nM.)
10 | Cc1nc(N[C@H]2CC[C@@H](NS(=O)(=O)Cc3cccc(C(F)(F)F)c3)CC2)cc(N(C)C)n1 [compound 472] | 3 (Class 3: The value of percent of control at 10^−7 M was more than 60% or the value of IC50 was more than 200 nM.)
11 | Cc1nc(N[C@H]2CC[C@@H](NS(=O)(=O)Cc3ccc(Cl)c(Cl)c3)CC2)cc(N(C)C)n1 [compound 473] | 3 (Class 3: The value of percent of control at 10^−7 M was more than 60% or the value of IC50 was more than 200 nM.)
12 | Cc1nc(N[C@H]2CC[C@@H](NS(=O)(=O)Cc3ccc(F)cc3)CC2)cc(N(C)C)n1 [compound 474, N-(cis-4-{[6-(dimethylamino)-2-methylpyrimidim-4-yl]amino}cyclohexyl)-1-(4-fluorophenyl)methanesulfonamide] | 3 (Class 3: The value of percent of control at 10^−7 M was more than 60% or the value of IC50 was more than 200 nM.)
13 | Cc1nc(N[C@H]2CC[C@@H](NS(=O)(=O)Cc3ccccc3[N+](=O)[O-])CC2)cc(N(C)C)n1 [compound 475] | 3 (Class 3: The value of percent of control at 10^−7 M was more than 60% or the value of IC50 was more than 200 nM.)
14 | Cc1nc(N[C@H]2CC[C@@H](NS(=O)(=O)Cc3ccccc3)CC2)cc(N(C)C)n1 [compound 476] | 3 (Class 3: The value of percent of control at 10^−7 M was more than 60% or the value of IC50 was more than 200 nM.)
15 | Cc1nc(N[C@H]2CC[C@@H](NS(=O)(=O)CCc3cccc4ccccc34)CC2)cc(N(C)C)n1 [compound 477] | 3 (Class 3: The value of percent of control at 10^−7 M was more than 60% or the value of IC50 was more than 200 nM.)
16 | Cc1nc(N[C@H]2CC[C@@H](NS(C)(=O)=O)CC2)cc(N(C)C)n1 [compound 478] | 3 (Class 3: The value of percent of control at 10^−7 M was more than 60% or the value of IC50 was more than 200 nM.)
17 | Cc1nc(N[C@H]2CC[C@@H](NS(=O)(=O)C(C)C)CC2)cc(N(C)C)n1 [compound 479] | 3 (Class 3: The value of percent of control at 10^−7 M was more than 60% or the value of IC50 was more than 200 nM.)
18 | CCCCCCCCS(=O)(=O)N[C@H]1CC[C@@H](Nc2cc(N(C)C)nc(C)n2)CC1 [compound 480] | 3 (Class 3: The value of percent of control at 10^−7 M was more than 60% or the value of IC50 was more than 200 nM.)
19 | COC(=O)c1ccccc1S(=O)(=O)N[C@H]1CC[C@@H](Nc2cc(N(C)C)nc(C)n2)CC1 [compound 481] | 3 (Class 3: The value of percent of control at 10^−7 M was more than 60% or the value of IC50 was more than 200 nM.)
20 | C=Cc1ccc(S(=O)(=O)N[C@H]2CC[C@@H](Nc3cc(N(C)C)nc(C)n3)CC2)cc1 [compound 482] | 3 (Class 3: The value of percent of control at 10^−7 M was more than 60% or the value of IC50 was more than 200 nM.)
21 | Cc1nc(N[C@H]2CC[C@@H](NS(=O)(=O)c3cccc(C(F)(F)F)c3)CC2)cc(N(C)C)n1 [compound 483] | 3 (Class 3: The value of percent of control at 10^−7 M was more than 60% or the value of IC50 was more than 200 nM.)
22 | CC(=O)c1ccc(S(=O)(=O)N[C@H]2CC[C@@H](Nc3cc(N(C)C)nc(C)n3)CC2)cc1 [compound 484] | 3 (Class 3: The value of percent of control at 10^−7 M was more than 60% or the value of IC50 was more than 200 nM.)
23 | Cc1nc(N[C@H]2CC[C@@H](NS(=O)(=O)c3ccc(C)c(Cl)c3)CC2)cc(N(C)C)n1 [compound 485] | 3 (Class 3: The value of percent of control at 10^−7 M was more than 60% or the value of IC50 was more than 200 nM.)
24 | Cc1cc(C)c(S(=O)(=O)N[C@H]2CC[C@@H](Nc3cc(N(C)C)nc(C)n3)CC2)c(C)c1 [compound 486] | 3 (Class 3: The value of percent of control at 10^−7 M was more than 60% or the value of IC50 was more than 200 nM.)
25 | CCCc1ccc(S(=O)(=O)N[C@H]2CC[C@@H](Nc3cc(N(C)C)nc(C)n3)CC2)cc1 [compound 487] | 3 (Class 3: The value of percent of control at 10^−7 M was more than 60% or the value of IC50 was more than 200 nM.)
26 | CCC(C)(C)c1ccc(S(=O)(=O)N[C@H]2CC[C@@H](Nc3cc(N(C)C)nc(C)n3)CC2)cc1 [compound 488] | 3 (Class 3: The value of percent of control at 10^−7 M was more than 60% or the value of IC50 was more than 200 nM.)
27 | Cc1nc(N[C@H]2CC[C@@H](NS(=O)(=O)c3ccc(-c4ccccc4)cc3)CC2)cc(N(C)C)n1 [compound 489] | 3 (Class 3: The value of percent of control at 10^−7 M was more than 60% or the value of IC50 was more than 200 nM.)
28 | Cc1nc(N[C@H]2CC[C@@H](NS(=O)(=O)c3cccc4c(N(C)C)cccc34)CC2)cc(N(C)C)n1 [compound 490] | 3 (Class 3: The value of percent of control at 10^−7 M was more than 60% or the value of IC50 was more than 200 nM.)
29 | Cc1nc(N[C@H]2CC[C@@H](NS(=O)(=O)c3ccccc3OC(F)(F)F)CC2)cc(N(C)C)n1 [compound 491] | 3 (Class 3: The value of percent of control at 10^−7 M was more than 60% or the value of IC50 was more than 200 nM.)
30 | Cc1nc(N[C@H]2CC[C@@H](NS(=O)(=O)c3cccc(OC(F)(F)F)c3)CC2)cc(N(C)C)n1 [compound 492] | 3 (Class 3: The value of percent of control at 10^−7 M was more than 60% or the value of IC50 was more than 200 nM.)

From patent US20090036448A1, “PYRIMIDINE DERIVATIVES AND METHODS OF TREATMENT RELATED TO THE USE THEREOF” (TAISHO PHARMECUTICAL CO., LTD., priority 2004, published 2009)
